“Also recorded” adds a separate entry of the source.
What was measured:
[1] = test system: H3K4me2 levels in Calu 6 human anaplastic lung tumor cell line; test: H3K4 methylation in tumor cells by Western blot; format: cell-based; settings: Calu 6 cells
Procedure: To verify that C1 and C15 have epigenetic effects in tumor cells, changes in H3K4 methylation in the Calu 6 human anaplastic lung tumor cell line were monitored, as shown in FIG. 4.
Following treatment, cells were washed twice in sterile filtered cold 1×PBS. Cells were then lysed in 200 μL of lysis buffer (20 mM Tris, 150 mM NaCl, 1 mM EDTA, 1 mM EGTA, 1 mM β-glycerol, 2.5 mM sodium pyrophosphate, and 1% Triton X-100) Protease and phosphatase inhibitors were added to these buffers (1:100 dilutions of phosphatase inhibitor cocktail I and II and protease inhibitor cocktail; Sigma). The cells were then incubated on ice for 15 min, and insoluble material was pelleted by centrifugation at 4° C.
Protein concentrations were determined by Pierce BCA protein assay kit (Thermo Sci, Product #23225). Cell lysates were subjected to SDS-PAGE, and Western blot analysis was performed with the appropriate antibodies. Primary antibodies against H3K4me2, H3K4me1, and LSD1 were from Cell Signaling; Histone H3 primary antibody was from Millipore. Proteins were visualized by enhanced chemiluminescence (ECL).

[2] = test system: LSD1:CoREST complex; test: Pull-down of HDAC1/CoREST/LSD1 complex with LSD1 antibody, Western blot for CoREST; format: cell-based; settings: primary feline cardiomyocytes, 3 h, 1 μM; LSD1 antibody pull-down
Procedure: Co-immunoprecipitation analysis for LSD1:CoREST complex following treatment from primary rat cardiomyocytes with 5 μM and 1 μM C1 was performed as described above. Lysates pulled down with LSD1 antibody and western blotted for CoREST (n=2).

[3] = test system: HDAC1/CoREST/LSD1 complex; test: Pull-down of HDAC1/CoREST/LSD1 complex with HDAC1 antibody, Western blot for CoREST; format: cell-based; settings: primary feline cardiomyocytes, 3 h, 5 μM
Excerpt: Co-immunoprecipitation (pull down) of intact protein complexes works by selecting an antibody that targets a known protein that is believed to be a member of a larger complex of proteins. By targeting this known member with an antibody it may become possible to pull the entire protein complex out of solution and thereby identify unknown members of the complex. This works when the proteins involved in the complex bind to each other tightly, making it possible to pull multiple members of the complex out of solution by latching onto one member with an antibody. This concept of pulling protein complexes out of solution is sometimes referred to as a “pull-down”. Co-immunoprecipitation is a powerful technique that is used regularly by molecular biologists to analyze protein-protein interactions. The co-repressor HDAC:CoREST:LSD1 complex was initially pulled down with an antibody for HDAC1 and a Western blot for CoREST was performed.

[4] = target: human recombinant spermine oxidase (Homo sapiens, UniProt Q9NWM0); test: Inhibition of spermine oxidase; format: biochemical
Procedure: The assay procedure is very similar to the assay used for LSD1, except that the reaction is conducted by human recombinant spermine oxidase. the assay for C1 and related analogues was conducted as previously described (Goodwin et al., 2011).

[5] = test system: murine myocardium; test: Infarct area in myocardial cross-section after induced myocardial ischemia; format: in vivo, mouse; settings: 10 mg/kg; versus vehicle
Excerpt: In the Langendorff preparation, the heart is removed with preservation of a portion of the afferent and efferent blood vessels; it is then perfused in a reverse fashion via the aorta, usually with a nutrient rich, oxygenated solution (e.g. Krebs-Henseleit solution or Tyrode's solution). The backwards pressure causes the aortic valve to shut, forcing the solution into the coronary vessels, which normally supply the heart tissue with blood. This feeds nutrients and oxygen to the cardiac muscle, allowing it to continue beating for several hours after its removal from the animal. This is a useful preparation because it allows the addition of drugs (via the perfusate) and observation of their effect on the heart without the complications involved with in vivo experimentation, such as neuronal and hormonal effects from living animal (Broadley, K. J., 1970). A pressure transducer is inserted to measure a number of cardiac performance parameters including left ventricular developed pressure, left ventricular end diastolic pressure, heart rate, etc. […]
The compounds described herein may be used to protect the myocardium from injury following an ischemic event. […] Results are expressed as a percentage of the area of infarct with respect to total surface area. […]

[6] = test system: mouse heart; test: Langendorff isolated heart model, ischemia/reperfusion; settings: versus vehicle
Excerpt: In the Langendorff preparation, the heart is removed with preservation of a portion of the afferent and efferent blood vessels; it is then perfused in a reverse fashion via the aorta, usually with a nutrient rich, oxygenated solution (e.g. Krebs-Henseleit solution or Tyrode's solution). The backwards pressure causes the aortic valve to shut, forcing the solution into the coronary vessels, which normally supply the heart tissue with blood. This feeds nutrients and oxygen to the cardiac muscle, allowing it to continue beating for several hours after its removal from the animal. This is a useful preparation because it allows the addition of drugs (via the perfusate) and observation of their effect on the heart without the complications involved with in vivo experimentation, such as neuronal and hormonal effects from living animal (Broadley, K. J., 1970). A pressure transducer is inserted to measure a number of cardiac performance parameters including left ventricular developed pressure, left ventricular end diastolic pressure, heart rate, etc. Following the Langendorff procedure, the myocardium is cut into cross sections, and infarcted tissue is identified by the inability to take up stain; thus infarcted areas appear white, while healthy areas appear red.
The compounds described herein may be used to protect the myocardium from injury following an ischemic event. In FIG. 6, a mouse heart was subjected to ischemia by ligation of the afferent vessel in a Langendorff preparation, as described above. Prior to the induction of ischemia, hearts were either pre-treated with vehicle, verlindamycin or C1. […] In FIG. 8, the results of an experiment to measure infarcted tissue in a myocardial cross-section are shown. Results are expressed as a percentage of the area of infarct with respect to total surface area. […] The HDAC1/CoREST/LSD1 complex was pulled down with an LSD1 antibody and a Western blot for CoREST was performed.

[7] = target: recombinant human LSD1/CoREST (Homo sapiens, UniProt O60341); test: IC50 determination by dose-response curve against recombinant LSD1/CoREST; format: biochemical
Procedure: Using a dose-response curve, the IC50 of C1 and C15 were calculated.
(§1) In short, 10 μM of compound was combined with the fluorometic substrate 10-acetyl-3,7-dihydroxyphenoxazine, horseradish peroxidase, human recombinant LSD1, and 100 μM dimethylated lysine at residue 4 [ARTK(diMe)[…]] (Seq. ID No: 1) for 30 mins at 37° C. Plates were read using an excitation wavelength of 535 nm and an emission wavelength of 590 nm with a SpectraMax M5 Microplate reader.

[8] = target: T1, human recombinant LSD1 (Homo sapiens, UniProt O60341); test: LSD1 inhibitor screening assay (Cayman Chemical kit, fluorometric); format: biochemical; settings: 10 μM compound; Chembridge analogues table
T1 construct: purchased Cayman Chemical Item #700120
Procedure: LSD1 Inhibitor Screening Assay:
as §1

Chain of human recombinant spermine oxidase (Q9NWM0 whole entry): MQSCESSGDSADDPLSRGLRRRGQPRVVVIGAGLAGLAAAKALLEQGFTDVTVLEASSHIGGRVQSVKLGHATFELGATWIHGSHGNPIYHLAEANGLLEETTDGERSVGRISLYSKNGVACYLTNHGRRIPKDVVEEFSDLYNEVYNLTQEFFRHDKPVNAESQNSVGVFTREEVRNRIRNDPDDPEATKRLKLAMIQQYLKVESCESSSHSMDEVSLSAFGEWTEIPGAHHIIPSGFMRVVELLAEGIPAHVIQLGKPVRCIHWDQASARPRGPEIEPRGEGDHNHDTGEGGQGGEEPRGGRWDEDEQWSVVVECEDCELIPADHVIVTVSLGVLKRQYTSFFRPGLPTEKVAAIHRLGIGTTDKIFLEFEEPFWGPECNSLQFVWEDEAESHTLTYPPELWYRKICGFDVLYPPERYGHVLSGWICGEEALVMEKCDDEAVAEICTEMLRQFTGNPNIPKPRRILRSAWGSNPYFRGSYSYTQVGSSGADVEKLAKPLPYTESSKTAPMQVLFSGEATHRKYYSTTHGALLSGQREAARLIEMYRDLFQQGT

Row | mode of inhibition of spermine oxidase [4] | IC50 ([4]; assayed between 0.1 and 1.0 μM, read-out: IC50 against spermine oxidase (SMOX)) [µM] | IC50 [7] [µM] | inhibition at 10 µM [8] [%] | SMILES | effect on H3K4 methylation ([1]; 24 or 48 hours) | association between LSD1 and CoREST [2] | association of HDAC1 and CoREST [3] | inhibition of spermine oxidase compared with verlindamycin ([4]; assayed between 0.1 and 1.0 μM) | infarct area as a percentage of the total left ventricular area [5] | left ventricular end diastolic pressure ([6]; 1 hour pre-treatment with 1.0 μM) | left ventricular developed pressure ([6]; pre-treatment before ischemia, after reperfusion) | H3K4me2 levels ([1]; 72 hours)
1 | competitive inhibitor | 0.04 |  |  | Nc1nnc(NCc2c(Cl)cccc2Oc2ccccc2)[nH]1 [Compound C1, N^3-(2-chloro-6-phenoxybenzyl)-4H-1,2,4-triazole-3,5-diamine] | did not appear to have a significant effect | disrupted the association between LSD1 and CoREST | disrupted the association of HDAC1 and CoREST | improved inhibition of spermine oxidase over verlindamycin | most effective in limiting the spread of infarct; also recorded: significantly more effective than treatment with vehicle | reduced to near-normal levels | restored to nearly normal levels | 
2 |  |  | 2.2 | 74.9 ± 1.9 | COc1ccccc1CNc1n[nH]c(NCc2ccccc2OC)n1 [Compound C15, N^3,N^5-bis(2-methoxybenzyl)-1H-1,2,4-triazole-3,5-diamine] |  |  | disrupted the association of HDAC1 and CoREST | improved inhibition of spermine oxidase over verlindamycin |  |  |  | significant, dose-dependent increase
